Results on two molecules are retold here after patent publication US9937174B2, “Combinations of histone deacetylase inhibitors and bendamustine” (priority 2014, dated 2018).

For orientation: IC50 means the point on the concentration scale where inhibition reaches its midpoint.

The subject of experiment [1] is lymphoma cell lines. The experiment in a line: cells. Type of experiment: cell-based.
Experiment [2] has as its system WSU-NHL. Nature of the experiment: cells. Type of experiment: cell-based. As to conditions: Homo sapiens. How it is done:
(§1) Ricolinostat was administered to each cell line at various concentrations (0.01, 0.1, 1, 5, and 10 μM), and cell viability was measured at 24, 48, and 72 hours.
(§2) Bendamustine was administered to each cell line at various concentrations (25, 50, 100, 200, and 300 μM), and cell viability was measured at 24 and 48 hours.
(§3) The effect of the drugs on each cell line was determined, and the combination index (CI) was measured. A CI<1 means synergy; a CI=1 means an additive effect; and a CI>1 means antagonism.

The subject of experiment [3] is Jeko-1. The experiment in a line: cells. As to conditions: Homo sapiens. The format is cell-based. How it is done:
as §1, §2, §3

The subject of experiment [4] is Hut-78. The experiment in a line: cells. The format is cell-based. To be noted: Homo sapiens. Here is the method: as §1, §2, §3
Experiment [5] deals with IL-10. The experiment in a line: IL-10 secretion by ELISA. (In an ELISA, binding on a coated surface is turned into a signal by an enzyme label.)
Procedure: IL-10 secretion was analyzed by ELISA. All data are means (±SD) of at least three separate experiments each performed in duplicate.
Experiment [6] concerns Karpas-299. Nature of the experiment: MTT cell viability in Karpas-299 cells. Type of experiment: cell-based. As to conditions: Homo sapiens, Karpas-299, 48 h. Here is the method:
(§4) HDAC6 protein is expressed in all cell lines examined (FIG. 1A). Ricolinostat was administered to each cell line at various concentrations (0.01, 0.1, 1, 5, and 10 μM), and cell viability was measured at 24, 48, and 72 hours.

Experiment [7] relates to reactive oxygen species (ROS). The experiment in a line: ROS generation by flow cytometry and Trx1 western blot. To be noted: 24 h and 48 h. On the technique in general: In flow cytometry, cells or beads pass a laser one at a time.
Procedure: All data are expressed as the mean±SD of triplicate culture.
H2O2 was used as a positive control.
(§5) Apoptosis, reactive oxygen species (ROS), cell cycle analysis, and Bcl-2 protein expression were measured by flow cytometry.
The test system of experiment [8] is RL. Nature of the experiment: MTT cell viability in RL cells. Type of experiment: cell-based. To be noted: Homo sapiens, 48 h. How it is done:
as §4

Experiment [9] has as its system lymphoma cell lines (WSU-NHL, Hut-78, Jeko-1). Nature of the experiment: Cell cycle analysis by flow cytometry. To be noted: 24 h.
Procedure: The bars of M1, M2, M3 and M4 indicate the sub-G0/G1, G0/G1, S and G2/M phases, respectively.
All values represent the mean±SD of three independent experiments.
as §5
The subject of experiment [10] is Granta-519. Nature of the experiment: cells. The format is cell-based. As to conditions: Homo sapiens, MTT. Here is the method:
as §1

Experiment [11] deals with lymphoma cell lines (WSU-NHL, Hut-78, Jeko-1). The format is cell-based. To be noted: flow cytometry, 24-48 h. Here is the method:
In FIG. 5A WSU-NHL cells were treated with either ricolinostat, bendamustine, or ricolinostat and bendamustine at the indicated concentrations. After 24 hours, the cells were fixed and stained with propidium iodide, and were analyzed by flow cytometry. […] This effect was enhanced by the combination with bendamustine (FIGS. 5C and 5D).

Experiment [12] has as its system tubulin polymerization. The experiment in a line: Tubulin polymerization by α-tubulin staining and flow cytometry. To be noted: 24 hours, intensity of fluorescence.
Procedure: Data are expressed as mean±SD and were obtained from three independent experiments performed in triplicate.
Lymphoma cells were treated for 24 hours with ricolinostat alone and in combination with bendamustine along with the microtubule destabilizer nocodazole (1 μM) and the microtubule stabilizer paclitaxel (100 nM). This was followed by whole cell-based quantitative measurement of tubulin polymerization using alpha-tubulin staining.
Experiment [13] relates to WSU-NHL, Hut-78 and Jeko-1 cells. Nature of the experiment: Methylcellulose clonogenic assay. The format is cell-based. To be noted: 24 h liquid culture, colonies counted after 10 days. How it is done: FIG. 2D and FIG. 2E show effects of ricolinostat alone and in combination with bendamustine on clonogenic survival. WSU-NHL, Hut-78 and Jeko-1 cells were first incubated with ricolinostat alone (1, 5, 10 μM) (C) and subsequently in combination with bendamustine (D) in liquid culture for 24 h. Treated cells were incubated in methylcellulose and colonies consisting of more 50 cell were counted after 10 days. The relative percentage with respect to control cells are shown and represent the mean±SD of three separate experiments.

For experiment [14], the target named is T1, HDAC6 (Homo sapiens, UniProt Q9UBN7).
T1 construct: endogenous in cells; host or cells: WSU-NHL, Hut-78, Jeko-1 lymphoma cell lines
T1 sequence (Q9UBN7 1-1215): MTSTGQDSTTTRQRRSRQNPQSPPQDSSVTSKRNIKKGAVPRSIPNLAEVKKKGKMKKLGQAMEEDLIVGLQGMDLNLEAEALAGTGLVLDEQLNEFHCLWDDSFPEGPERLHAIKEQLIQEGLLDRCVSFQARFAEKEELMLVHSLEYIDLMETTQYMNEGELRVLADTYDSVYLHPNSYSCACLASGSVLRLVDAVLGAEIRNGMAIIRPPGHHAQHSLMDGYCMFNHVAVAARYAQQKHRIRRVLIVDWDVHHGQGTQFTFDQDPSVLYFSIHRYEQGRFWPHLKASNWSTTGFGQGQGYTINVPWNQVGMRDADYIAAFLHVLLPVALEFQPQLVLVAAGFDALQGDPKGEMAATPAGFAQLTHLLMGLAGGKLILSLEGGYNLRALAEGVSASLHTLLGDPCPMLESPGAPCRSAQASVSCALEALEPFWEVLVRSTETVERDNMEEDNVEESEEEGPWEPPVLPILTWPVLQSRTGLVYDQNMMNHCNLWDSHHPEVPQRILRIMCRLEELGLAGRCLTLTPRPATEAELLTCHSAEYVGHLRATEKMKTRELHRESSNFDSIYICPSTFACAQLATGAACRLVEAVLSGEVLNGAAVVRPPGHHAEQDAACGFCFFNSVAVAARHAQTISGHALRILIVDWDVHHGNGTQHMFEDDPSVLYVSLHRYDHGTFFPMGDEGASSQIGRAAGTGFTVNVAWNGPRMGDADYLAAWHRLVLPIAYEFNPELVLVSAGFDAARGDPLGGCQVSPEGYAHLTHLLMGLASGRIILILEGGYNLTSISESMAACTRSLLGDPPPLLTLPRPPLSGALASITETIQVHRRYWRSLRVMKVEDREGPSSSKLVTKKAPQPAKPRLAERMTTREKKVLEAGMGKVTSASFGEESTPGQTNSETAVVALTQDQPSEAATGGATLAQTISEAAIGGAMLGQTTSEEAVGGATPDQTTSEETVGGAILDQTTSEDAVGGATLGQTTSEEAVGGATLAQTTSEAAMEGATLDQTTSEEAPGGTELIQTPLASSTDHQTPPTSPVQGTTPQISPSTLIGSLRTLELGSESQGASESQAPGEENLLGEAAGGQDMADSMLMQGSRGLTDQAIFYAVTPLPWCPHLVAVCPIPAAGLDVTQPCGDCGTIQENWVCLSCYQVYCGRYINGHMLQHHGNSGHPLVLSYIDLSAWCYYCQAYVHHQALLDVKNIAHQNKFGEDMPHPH
The experiment in a line: Western blot of HDAC6 and acetylated α-tubulin. The format is cell-based. As to conditions: 24 h. The text has this: Tubulin was used to normalize protein loading.
A general note: Immunoblotting shows a protein as a band on a membrane.

Read-outs that look alike come from different tables or passages of the source.

As to `Cn1c(CCCC(=O)O)nc2cc(N(CCCl)CCCl)ccc21` [bendamustine, 4-[5-[Bis(2-chloroethyl)amino]-1-methylbenzimidazol-2-yl]butanoic acid], the half-maximal inhibitory concentration (IC50) was 127 to 168 µM in experiment [1] (24 h, read-out: range of IC50); 168 µM in experiment [2] (24 h, read-out: IC50 at 24 hours); 127 µM in experiment [3] (JeKo-1, 24 h, read-out: IC50 at 24 hours); 144 µM in [4] (HuT78, 24 h, read-out: IC50 at 24 hours).

For `O=C(CCCCCCNC(=O)c1cnc(N(c2ccccc2)c2ccccc2)nc1)NO` [ricolinostat, 2-(diphenylamino)-N-(7-(hydroxyamino)-7-oxoheptyl)pyrimidine-5-carboxamide], the IL-10 secretion result in experiment [5] is given as “down-regulation of IL-10”. The IC50 in [6] is 4.82 µM; in experiment [8] it was 3.37 µM; in [10] (Granta-519, 24 h) it was 64 µM; in experiment [10] (Granta-519, 48 h) it was 20 µM; in [1] (lymphoma cell lines, exposure 24-72 hours, read-out: IC50 values ranging), 0.17 to 8.65 µM; in experiment [1] (panel of six lymphoma cell lines, 24 and 48 h, read-out: IC50 values ranging) it was 1.51 to 64 µM. In addition, the IC50 in experiment [2] (24 h, MTT, read-out: IC50) worked out at 8.65 µM; in experiment [2] (48 h, MTT, read-out: IC50), 1.97 µM; in experiment [3] (Jeko-1, 48 h, MTT, read-out: IC50), 3.42 µM; in experiment [4] (HuT78, 48 h, Hut-78, 48 h, MTT, read-out: IC50), 1.51 µM; in experiment [4] (HuT78, 48 h, Hut-78, 48 hours, MTT, read-out: IC50) it was 1.5 µM. Besides, in experiment [7], the ROS generation result is on record as “induced an increase of ROS production at 24 h, which further increased after 48 h”. Moreover, in [9], the cell cycle distribution entry is “increase in the percentage of cells in the G0/G1 phase and a decrease in the G2/M phase”. Also, the induction of apoptosis result in [11] is “induced apoptosis in all cell lines examined in time- and dose dependent manner”. For the same molecule, the tubulin polymerization entry in experiment [12] was “induced tubulin polymerization”. Also, in [13], the “clonogenic survival / colony formation” value is on record as “reduced clonogenic survival in a dose dependent manner”. In addition, the “HDAC6 expression and acetylation level of α-tubulin” value in [14] was “reduced HDAC6 expression and induced the acetylation level of α-tubulin”.
